AC50 data for 71 molecules are collected here from publication PMC7822874, “Chemoprotective antimalarials identified through quantitative high-throughput screening of Plasmodium blood and liver stage parasites” (Scientific Reports, 2021).

The experiment relates to Plasmodium falciparum Dd2 asexual blood stage parasites. Kind of experiment: microbe, parasite or virus in culture. Set-up: species or system Plasmodium falciparum Dd2 in human erythrocytes; single determination (one 11-point concentration-response curve). The settings on record: Plasmodium falciparum, DD2, Erythrocyte, 72 h; read-out: AC50.
Regarding `CC(C)c1ccc(-c2noc(SCC(=O)N3CCN(c4ccc(F)cc4)CC3)n2)cc1` [NCGC00127934-01], the AC50 was determined as 0.668 µM.
In the case of `Cc1cccc(Oc2nc(-c3ccncc3)nc3ccccc23)c1` [MLS000769517-01], the AC50 amounted to 7.5 µM.
Take `Cc1ccccc1-c1nccn2c(C3CN(Cc4ccccc4O)C3)ncc12` [NCGC00414046-01]: the AC50 turned out to be 5.44 µM.
For `Cc1ccc2c(C)c(C(=O)N3CCCC3c3nc(C(C)C)no3)oc2c1C` (centres unmarked) [NCGC00435047-01], the AC50 came out at 6.68 µM.
The figure for `CCOC(=O)C1(c2ccccc2)CCN(CCC(C#N)(c2ccccc2)c2ccccc2)CC1` [NCGC00167963-01] is 5.31 µM; for `CC(Oc1ccccc1)C(=O)Nc1nc(-c2ccccn2)cs1` (centres unmarked) [MLS002158763-01] it is 8.41 µM.
Consider `COc1cc2c(cc1OC)C(COc1ccc3c(C)cc(=O)oc3c1)N(C(=O)c1ccccc1C)CC2` (centres unmarked) [NCGC00104945-01], for which the AC50 came out at 15 µM.
Take `CCN(Cc1ccccc1)Cc1c(O)ccc2oc(C)c(C(=O)Nc3ccccc3C)c12` [NCGC00115715-01]: the AC50 was found to be 4.73 µM.
In the case of `CCN(CC)CCNC(=O)c1ccc(NC(=O)c2cccc(S(=O)(=O)N3CCc4ccccc43)c2)cc1` [MLS002169644-01], the concentration at half-maximal activity (AC50) stood at 5.31 µM.
The figure for `Cc1cc(C)c2oc(=O)cc(CN3CCCCC3)c2c1` [MLS001216359-01] is 13.3 µM; for `COc1ccc(-c2c[nH]c([C@@H]3COCCN3Cc3ccccc3O)n2)cc1` [NCGC00394307-01] it is 17.2 µM.
The figure for `O=C(CC[S+](=O)([O-])c1cc(Br)cc2c1N(C(=O)C1CC1)CC2)N1CCN(c2cccc(Cl)c2)CC1` [NCGC00107190-01] is 13.3 µM; for `COc1cc(NC(=O)CSc2nc(-c3ccc(C(C)C)cc3)no2)cc(OC)c1` [NCGC00127914-01] it is 0.841 µM; for `Cc1cccc(CN2CCN(C(=O)CCl)CC2)c1` [MLS000336096-01] it is 13.3 µM.
Regarding `COc1ccccc1C(=O)N1CCC2(CC1)OC(=O)N(CCOc1ccccc1)C2(C)c1cccnc1` (centres unmarked) [NCGC00415508-01], the AC50 is 9.44 µM.
The figure for `O=C(Nc1ccc(F)cc1F)N1CCOc2ccc(CN3CCc4ccccc4C3)cc2C1` [NCGC00471236-01] is 16.8 µM; for `COc1cc(C2Nc3ccc4ccccc4c3C3=C2C(=O)CC(C)(C)C3)ccc1OC(C)C(=O)O` (centres unmarked) [MLS001197433-01] it is 6.68 µM.
As to `COc1ccc(CCN(C)C(=O)CC(c2cccc(F)c2)c2cn(C)c3ccccc23)cc1OC` (centres unmarked) [NCGC00473446-01], the AC50 was 8.41 µM.
On to `Cc1c(Cl)cccc1Nc1nn2c(=O)c3ccc(C(=O)N(C)Cc4ccccc4)cc3nc2s1` [NCGC00125571-01], for which the AC50 worked out at 16.8 µM.
With `Cc1ccc(-c2nc(NC(=O)c3cc(C(C)(C)C)nn3C)sc2C)cc1Cl` [MLS000860650-01] the figure was 10.6 µM; with `CCOC(=O)N1CCc2c(sc3c2c(=O)n(CCc2ccccc2)c(=O)n3Cc2c(F)cccc2Cl)C1` [NCGC00111977-01], 2.66 µM; with `Cc1ccc(N(Cc2cccs2)C(=O)C(C)Oc2ccc(Cl)c(C)c2)cc1` (centres unmarked) [NCGC00119071-01], 7.5 µM.
With `Oc1ccccc1CN[C@H]1[C@H](O)[C@@H](N2CCC(Cc3ccccc3)CC2)[C@@H]2OC[C@H]1O2` [NCGC00400924-01], the concentration at half-maximal activity (AC50) turned out to be 3.44 µM.
With `O=C(C1=C[C@H](c2csc3ccccc23)C[C@H](OCCCCO)O1)N1CCN(Cc2ccc3c(c2)OCO3)CC1` [MLS000834451-01] the figure was 13.3 µM; with `COc1cc(/C=C(\C#N)c2nc3ccccc3[nH]2)cc(Cl)c1OCc1ccccc1Cl` [NCGC00102602-01], 5.31 µM.
With `Cc1ccnc2nc(C(=O)Nc3cc(Cl)ccc3N3CCOCC3)nn12` [MLS000567033-01], the AC50 is 4.73 µM.
With `O=c1oc2c(CN3CCOCC3)c(O)ccc2cc1-c1ccccc1` [NCGC00135757-01] the figure was 9.44 µM; with `CC(C)(C)c1ccc(CN(Cc2ccccc2)C(c2ccccn2)c2nnnn2C(C)(C)C)cc1` (centres unmarked) [MLS000529130-01], 4.73 µM.
The figure for `CC(C)c1ccc(C2c3[nH]c4ccccc4c3C[C@H]3C(=O)N(c4ccccc4C(=O)N4CCC(C(=O)O)CC4)C(=O)N23)cc1` (some centres unmarked) [MLS001140664-01] is 6.68 µM; for `Cc1ccccc1OCCSc1nc2ccc(NC(=O)c3cccs3)cc2s1` [NCGC00118502-01] it is 5.31 µM; for `COc1ccc2[nH]cc(CCNC(=O)C3(Cc4ccccc4)CCCCC(=O)N3)c2c1` (centres unmarked) [NCGC00456177-01] it is 5.96 µM.
Consider `CCOC(=O)c1c(CN2CCCCC2)n(C)c2cc(Br)c(O)cc12` [MLS000523143-01], for which the AC50 amounted to 7.5 µM.
For `Cc1ccc(S(=O)(=O)Nc2ccc(-c3cn4ccc(C)cc4n3)cc2)cc1` [MLS000579534-01], the AC50 is 6.68 µM.
For `COc1ccc(-c2cnc3[nH]cc(CC(=O)NCc4cccnc4)c3c2)cc1OC` [NCGC00412448-01], the AC50 was found to be 1.53 µM.
Consider `O=C(C1CC1)N1CCc2cc(Br)cc([S+](=O)([O-])N3CCN(c4cccc(C(F)(F)F)c4)CC3)c21` [NCGC00104294-01], for which the AC50 was 4.73 µM.
The figure for `COc1ccc(-c2n[nH]c3ncc(-c4cccnc4)nc23)cc1F` [NCGC00419143-01] is 3.85 µM; for `CC1CCc2cc(F)ccc2N1C(=O)CSc1nnc2c(n1)[nH]c1ccc(F)cc12` (centres unmarked) [MLS000556689-01] it is 8.41 µM; for `COc1cc2c(cc1OC1CCCC1)NC(=O)C21CCN(c2cnccn2)CC1` [NCGC00416906-01] it is 7.69 µM.
The figure for `O=C(Nc1ccc(Cl)cc1)c1cc2c(-c3ccccc3)nn(-c3ccccc3)c2s1` [NCGC00102088-01] is 2.37 µM; for `Cc1c(Cl)cccc1Nc1nn2c(=O)c3ccc(C(=O)NCCc4ccccc4)cc3nc2s1` [NCGC00125565-01] it is 7.5 µM; for `Cn1c(=O)[nH]c2nnc(-c3ccc(Cl)c(Cl)c3)nc2c1=O` [MLS000768805-01] it is 8.41 µM.
Turning to `CCN(CC)c1cc(C)c2cc(NC(=O)c3ccc(Br)o3)ccc2n1` [MLS000519820-01], the AC50 is 6.68 µM.
Consider `COCCOc1cc(-c2noc([C@@H]3CCCN3CC3CC3)n2)ccn1` [NCGC00394865-01], for which the AC50 is 15.3 µM.
`Cc1ccc(Oc2c(C(F)(F)F)oc3c(CN4CCC(C)CC4)c(O)ccc3c2=O)cc1` [NCGC00101480-01]: the AC50 stood at 1.68 µM.
The figure for `CN(C)C(C(=O)N1CCC(F)(F)CC1)c1ccccc1F` (centres unmarked) [NCGC00444487-01] is 15 µM.
`COc1ccc(C2=[N+](C)CCn3cccc32)c(OC)c1` [MLS000705896-01]: the half-maximal activity concentration (AC50) was 10.6 µM.
`CCC(=O)C1=C(c2cccc([N+](=O)[O-])c2)N(C(=O)CC)n2c(nnc2-c2ccccc2)S1` [NCGC00137270-01]: the AC50 came out at 5.31 µM.
As to `C[C@]1(CO)[C@H]2Cc3sc(NC(=O)c4cccc(F)c4)nc3[C@@H](CC(=O)N3CCOCC3)[C@]2(C)CC[C@H]1O` [NCGC00395198-01], the AC50 turned out to be 8.41 µM.
For `Cc1cnc(CC2CCCN([S+](=O)([O-])c3ccccc3)C2)n1CC1CC1` (centres unmarked) [NCGC00469674-01], the AC50 was 6.68 µM.
With `Cn1cc(CN2CCCC(CO)(Cc3ccccc3)C2)cn1` (centres unmarked) [MLS000732297-01], the AC50 was found to be 5.96 µM.
The figure for `O=C(Cc1ccc(Cl)cc1)NCc1nnc2cc(-c3nc(C4CC4)no3)ccn12` [NCGC00457746-01] is 7.5 µM; for `O=C(c1ccccc1F)N1CCC2(CC1)COc1ccccc1CN2` [NCGC00477550-01] it is 4.33 µM.
The figure for `COc1cc2c(cc1OCc1ccccc1)N([S+](=O)([O-])c1cccnc1)CC21CCN(C)CC1` [NCGC00419860-01] is 10.6 µM; for `CCC(C)(C)n1nnnc1C(c1cc2cccc(C)c2nc1O)N1CCN(C(=O)c2ccco2)CC1` (centres unmarked) [MLS000073230-01] it is 6.68 µM.
As to `COC1C(=O)N(c2cccc(F)c2)C12CCNCC2` (centres unmarked) [NCGC00463379-01], the AC50 was found to be 10.6 µM.
Turning to `CCc1cccc2c(C(CC(=O)N3CCC(C)CC3)c3cccc(C)c3)c[nH]c12` (centres unmarked) [NCGC00473418-01], the AC50 worked out at 4.73 µM.
On to `CCCCCCCNC(=O)C1(CC2CC(c3cccc(Br)c3)=NO2)CCN(C(=O)c2cc(OCC)c(OCC)c(OCC)c2)CC1` (centres unmarked) [MLS001144006-01], for which the AC50 turned out to be 10.6 µM.
The figure for `CC1CCN(CC2CCCCCN2C(=O)Cc2ccccc2)CC1` (centres unmarked) [NCGC00456721-01] is 9.44 µM; for `CCN1CCN(c2cc(C)c3cc(NC(=O)c4ccc(Br)o4)ccc3n2)CC1` [MLS000878990-01] it is 6.68 µM; for `Cc1[nH]c2ccc(OC(F)(F)F)cc2c1CCNCc1cccc([N+](=O)[O-])c1` [MLS001198398-01] it is 4.73 µM.
With `O=[S+]([O-])(c1cccnc1)N1CCC2(CC1)NCCc1c2[nH]c2ccccc12` [NCGC00460719-01] the figure was 16.8 µM; with `COCCN(CCOC)c1nc(N)c2c(N)nc3c(c2c1C#N)CC(=O)N3Cc1ccc(Cl)cc1` [MLS000402239-01], 5.96 µM.
In the case of `CCC1=C(C(=O)OC)C(c2ccccc2OC)N2C(CC(=O)NCC3CCCO3)=CSC2=N1` (centres unmarked) [NCGC00473341-01], the concentration at half-maximal activity (AC50) amounted to 15 µM.
As for `CCCCC(=O)Nc1nc(C)c(-c2csc(Nc3cc(OC)ccc3OC)n2)s1` [MLS000561609-01], the AC50 is 9.44 µM.
The figure for `CCC(C)c1ccc(N(C(=O)c2ccco2)C(C(=O)NC2CCCC2)c2cccnc2)cc1` (centres unmarked) [MLS001222477-01] is 6.68 µM; for `CCOC(=O)c1c(CN2CCOCC2)n(-c2ccccc2)c2cc(Br)c(O)cc12` [MLS000530556-01] it is 2.99 µM.
Regarding `CCCn1c(=N)c(C(=O)NC2CCCC2)cc2c(=O)n3cccc(C)c3nc21` [NCGC00100358-01], the AC50 is 5.96 µM.
`Cc1ccccc1N(C)C1CN(Cc2ccc(C#N)cc2)C1` [NCGC00476680-01]: the AC50 came out at 3.85 µM.
For `Cc1ccc(CN2CCCN(Cc3ccncc3)C(c3ccccc3)CC(=O)NCC2)s1` (centres unmarked) [NCGC00467183-01], the AC50 amounted to 2.66 µM.
In the case of `O=C(CC1C(=O)N(Cc2ccccc2)C(=S)N1CCN1CCOCC1)Nc1ccc(F)cc1` (centres unmarked) [MLS000672078-01], the AC50 turned out to be 5.31 µM.
Turning to `Cc1ccc(-c2nnc(Nc3ccc(OCC(N)=O)cc3)c3ccccc23)cc1[S+](=O)([O-])NCC1CCCO1` (centres unmarked) [NCGC00100178-01], the concentration at half-maximal activity (AC50) was found to be 4.73 µM.

The term AC50 denotes the concentration at which the activity in the assay is half-maximal.
